This is an account of results in paper PMC9099256, “Toward Novel [^18F]Fluorine-Labeled Radiotracers for the Imaging of α-Synuclein Fibrils” (Frontiers in Aging Neuroscience, 2022).

The structures appear in SMILES notation.

Data set [1] is described as follows: In vitro plasma protein binding (ultrafiltration). In kind it is in vitro ADME, human. Particulars: for fp (free plasma fraction): human plasma, ultrafiltration, n = 3. The method, then: To estimate the free fraction (fp) of the radioligands in the plasma, an ultrafiltration method was used. Approximately 1 MBq of [^18F]d2, [^18F]d4, [^18F]d6, and [^18F]d8 were added to 450 μL of Seronorm Human plasma (Invicon GmbH, Munich, Germany), and the mixture was incubated for 10 min. After incubation, 150 μL of plasma was transferred into 3 ultrafiltration tubes (Centrifree YM-30; cutoff 30,000 MW; Millipore) and centrifuged at 8,000 rpm for 10 min. Equal aliquots of the ultrafiltrate (Cfree), and of the plasma (Ctotal) were counted for their radioactivity with a γ-counter. The fp of the radioligands was calculated as fp = Cfree/Ctotal (n = 3).

Data set [2] in a line: Biodistribution experiments. In kind it is in vivo, healthy C57BL/6J mice. The conditions noted are these: healthy mice, i.v. Here is the method:
The ethanol solutions containing the tracers [^18F]d2, [^18F]d4, [^18F]d6, and [^18F]d8 were diluted with DMSO, Tween-20, and saline added consecutively to achieve a final concentration of 2.4, 2.4, and 0.4% of ethanol, DMSO, and Tween-20, respectively. The pH was adjusted with 0.05 N aqueous sodium hydroxide solution. 1.5–2.5 MBq of [^18F]d2, [^18F]d4, [^18F]d6, and [^18F]d8 prepared in the above solvent mixture were administered to the mice via the caudal vein under isoflurane anesthesia. The mice were sacrificed at 5 and 60 min p.i. The following organs/tissues were extracted: blood, heart, lung, liver, stomach, pancreas, colon, small intestine, kidney, muscle, bone, tail, and the brain. The radioactivity in the pre-weighed tissue samples was determined using a γ-counter. Data are expressed as a percent of the injected dose per gram tissue (% ID/g; mean ± sd, n = 3).

The nature of data set [3]: Log D determination (octanol/PBS pH 7.4). In kind it is physicochemical. The conditions noted are these: for logD: octanol/PBS pH 7.4, n = 3. The method, then:
To a solution of [^18F]d2, [^18F]d4, [^18F]d6, and [^18F]d8 (0.5–1.0 MBq) in 0.5 mL octanol, 0.5 mL PBS (pH 7.4) was added in a 1.5 mL Eppendorf vial. The vials were vigorously vortexed for 10 min. To achieve efficient phase separation, the vials were centrifuged for 10 min at 13,000 rpm in a Heraeus Biofuge 13 centrifuge. Aliquots (100 μL) of the aqueous and the octanol phase were collected carefully and the amount radioactivity in the respective samples was quantified using a γ-counter. The log octanol/PBS values were calculated from the means of n = 3 separate determinations.

By logD is commonly meant lipophilicity at a set pH, counting ionised and neutral species. Low values mean a more hydrophilic compound, high ones a more lipophilic compound. On to `COc1ccc(-c2csc(-c3nc(-c4ccc5c(c4)OCO5)cs3)n2)cc1[18F]` [[^18F]d2, 4-(benzo[d][1,3]dioxol-5-yl)-4′-(3-[^18F]fluoro-4-methoxyphenyl)-2,2′-bithiazole], for which the “fp (free plasma fraction)” value in data set [1] was determined as 0.25 ± 0.01%. Besides, in data set [2], the “brain uptake at 5 min p.i.” value amounted to 1.58 %ID/g and the “brain uptake at 60 min p.i.” value was determined as 1.93 %ID/g. In data set [3], the logD amounted to 3.1 ± 0.09.
Take `COc1ccc(-c2csc(-c3nc(-c4cnc5c(c4)OCO5)cs3)n2)cc1[18F]` [[^18F]d4, 6-(4′-(3-[^18F]fluoro-4-methoxyphenyl)-[2,2′-bithiazol]-4-yl)-[1,3]dioxolo[4,5-b]pyridine]: the “fp relative to benzodioxole counterpart” value in data set [1] ([18F]d8 vs [18F]d6, [18F]d4 vs [18F]d2) is roughly 2 times. Further, the “fp (free plasma fraction)” value in data set [1] is reported as 0.45 ± 0.03%. Besides, in data set [2], the “brain uptake at 5 min p.i.” value is listed as 4.63 %ID/g and the “brain uptake at 60 min p.i.” value is reported as 3.86 %ID/g. In addition, the “reduction of log D versus benzodioxole counterpart” value in data set [3] ([18F]d4 vs [18F]d2, [18F]d8 vs [18F]d6) is “approximately 3.2%”. In data set [3], this molecule displayed a pH-dependent lipophilicity (logD) of 3 ± 0.04.
